These results are taken from the Deep4Chem optical property database.

Molecules are shown by their SMILES.

A short description of the series: solvent given as SMILES.
Where [1] appears, read: in O=P(c1ccccc1)(c1ccccc1)c1ccccc1Oc1ccccc1P(=O)(c1ccccc1)c1ccccc1.

As to `CC1(C)c2ccccc2N(c2ccc(-c3nnc(-c4ccc(-n5c6ccccc6c6ccccc65)cc4)o3)cc2)c2ccccc21`, the emission maximum is, setting by setting: (in Cc1ccccc1) 460 nm; under setting [1], 479 nm.
On to `Cc1ccc(C2=C3C=CC(/C=C/c4ccccc4)=[N+]3[B-](F)(F)n3c(/C=C/c4ccccc4)ccc32)cc1`, for which the emission maximum runs as follows: (in C1CCCCC1) 642 nm; (in C1CCOC1) 645 nm; (in C1COCCO1) 646 nm; (in CCOC(C)=O) 641 nm; (in CO) 639 nm; (in Cc1ccccc1) 649 nm. The same compound had an emission maximum (in ClC(Cl)Cl) of 647 nm.
Turning to `Cc1cc2ccccc2c2c1c1ccccc1n2-c1ccc(N(c2ccccc2)c2ccccc2)cc1`, the emission maximum is, setting by setting: (in CCOC(C)=O) 386 nm; (in CS(C)=O) 428 nm; (in ClCCl) 404 nm.
Take `O=C1C(=c2c(=O)c3c4ccccc4cc4cc5ccccc5c2c43)C(=O)c2ccccc21`: the emission maximum is, setting by setting: (in C1CCOC1) 583 nm; (in CC#N) 604 nm; (in CCCCCC) 556 nm; (in Cc1ccccc1) 578 nm; (in ClCCl) 599 nm.
Under “in C1CCOC1”, `N#Cc1ccc(/C=C/C(F)(F)F)c(N)c1` registered an emission maximum of 439 nm.
Turning to `F[B-]1(F)n2c(nc(Br)c2Br)-c2cccc[n+]21`, the emission maximum (in C1CCCCC1) is reported as 463 nm; the emission maximum (in C1CCOC1) was 484 nm; the emission maximum (in C1COCCO1) is given as 493 nm; the emission maximum (in CC#N) is 492 nm; the emission maximum (in CCCCCC) was determined as 464 nm; the emission maximum (in CO) amounted to 487 nm. This compound displayed an emission maximum (in ClC(Cl)Cl) of 469 nm.
In turn, `c1cc2cc(c1)c1cccc(c1)c1ccc3ccc4ccc(cc4c3c1)c1cccc(c1)c1cccc2c1` registered an emission maximum (in Cc1ccccc1) of 382 nm.
For `CN(C)c1ccc(-c2nc3nccnc3n2-c2ccc(N(C)C)cc2)cc1`, for the setting “in CC#N”, the emission maximum came out at 472 nm.
On to `CCCCCCCCCCCCN1C(=O)c2c(c3ccc4cc(-c5ccc(N(C)C)cc5)c(OC)cc4c3c3c2ccc2cc(-c4ccc(N(C)C)cc4)c(OC)cc23)C1=O`, for which the emission maximum (in ClCCl) was found to be 620 nm.
On to `CC1CC=C(c2ccc(-c3cccs3)s2)CC1` (stereo not drawn), for which the emission maximum reads like this: (in C1CCOC1) 412 nm; (in CC#N) 404 nm; (in CCCCCC) 408 nm; (in CCO) 411 nm; (in OCCOCCO) 414 nm; (in c1ccncc1) 417 nm.
For `CN(C)c1ccc(/C=C/c2cnc(-c3ccncc3)o2)cc1`, the emission maximum (in ClCCl) is given as 550 nm.
`CC1(C)c2ccccc2N(c2ccccc2)c2ccc(S(=O)(=O)c3ccc4c(c3)C(C)(C)c3ccccc3N4c3ccccc3)cc21`: the emission maximum was determined as 370.45 nm (in Cc1ccccc1) and 381 nm under setting [1].
For the setting “in ClC(Cl)Cl”, `CCOC(CN1C(=O)C2=C(c3cc4cc(C(C)(C)C)cc(C(C)(C)C)c4o3)N(CC(OCC)OCC)C(=O)C2=C1c1cc2cc(C(C)(C)C)cc(C(C)(C)C)c2o1)OCC` showed an emission maximum of 594 nm.
As for `Cc1cccc(C)c1/C=C/c1nc(N2CCOCC2)c2c([n+]1[O-])CCCC2`, where the note is “in ClCCl”, the emission maximum is recorded as 536 nm.
On the same count and under the same terms, under `CC1=C(c2ccc(N(C)C)cc2)C(C)=[N+]2C1=C(c1c(-c3ccccn3)nc3ccccn13)c1c(C)cc(C)n1[B-]2(F)F` stands 524 nm.
Where the note is “in C1CCOC1”, `C(=C(c1ccccc1)c1ccccc1)c1ccc(-c2ccc(C=C(c3ccccc3)c3ccccc3)cc2)cc1` gave an emission maximum of 445 nm.
`O=C1NC(=O)c2ccc(N3CCOCC3)c3cccc1c23` had an emission maximum (in ClC(Cl)Cl) of 504 nm.
Under “in ClCCl”, `Clc1ccccc1N1c2c(sc3ccccc23)Sc2sc3ccccc3c21` displayed an emission maximum of 574 nm.
As for `CN(C)c1ccc(C(=O)Nc2cccc(Cl)c2)cc1`, the emission maximum is reported as 338 nm (in C1CCCCC1), 455 nm (in C1CCOC1), 496 nm (in CC#N) and 445 nm (in CCOCC).
Turning to `COc1ccc(-c2ncccn2)cc1`, the emission maximum (in ClCCl) is recorded as 356 nm.
